Literature values as cited in patent US20080152709A1, “CLONIDINE COMPOSITION AND METHOD OF USE” (DRUGTECH CORPORATION, priority 2006, published 2008).
Structures can show the parent of a compound that is named as a salt. Where two headings read alike, the source gives them in different places.

Columns and labels:
[1] = test system: patients with morning hypertension; conditions: once daily in the evening, added to pre-existing antihypertensive regimen
[2] = administered orally
[3] = once daily oral 0.25 and 0.5 mg, sustained-release formulation
[4] = oral administration of 0.3 mg
[5] = not given; remark: listed apart in the source
[6] = oral 0.075 mg twice daily for three days; third day
[7] = not given; remark: listed apart in the source
[8] = single oral dose of 0.3 mg clonidine hydrochloride
[9] = single oral dose of 0.3 mg, all subjects

absorption from the gastrointestinal tract [2] | peak clonidine concentration (Cmax) (single oral dose 0.075 mg) [ng/mL] | plasma concentration 24 hours after administration (single oral dose 0.075 mg) [ng/mL] | peak clonidine concentration (Cmax) (single oral dose 0.15 mg) [ng/mL] | plasma concentration 24 hours after administration (single oral dose 0.15 mg) [ng/mL] | peak clonidine concentration (Cmax) (single oral dose 0.25 mg) [ng/mL] | plasma concentration 24 hours after administration (single oral dose 0.25 mg) [ng/mL] | peak plasma clonidine concentration [4] [ng/mL] | peak clonidine concentration [6] [ng/mL] | mean maximum plasma concentration [7, 8] [ng/mL] | time of mean maximum concentration after administration [7, 8] [h] | plasma concentration at 24 hours ([7]; single oral dose of 0.3 mg clonidine hydrochloride, 24 hours) | salivary flow (dry mouth symptoms) [7, 9] | Compound | morning blood pressure [1] | 24-hour antihypertensive efficacy [3] | effect on diastolic blood pressure ([5]; 0.1 mg administered at 4 pm or 8 pm) | effect on diastolic blood pressure ([5]; 0.1 mg administered at 6 am or 12 noon) | sedation [7, 9]
almost completely absorbed | 0.28 | 0.06 | 0.61 | 0.07 | 1.16 | 0.34 | 1.34 | 0.39 |  |  |  |  | Clc1cccc(Cl)c1NC1=NCCN1 [clonidine, N-(2,6-dichlorophenyl)-4,5-dihydro-1H-imidazol-2-amine] | effective in reducing morning blood pressure | Reduction in blood pressure was observed throughout the 24 hours | not | reduced diastolic blood pressure | 
 |  |  |  |  |  |  |  |  | 1.35 | 1 | below 0.5 ng/ml | marked reduction in salivary flow | Clc1cccc(Cl)c1N=C1NCCN1 [clonidine hydrochloride] |  |  |  |  | markedly sedated
